Reference: article PMC6934184, “Selective DNA-PKcs inhibition extends the therapeutic index of localized radiotherapy and chemotherapy” (The Journal of Clinical Investigation, 2019)

Molecular target: T1, LTK (TYK1) (Homo sapiens, UniProt P29376)
T1 construct: purchased Thermo Fisher Scientific (Life Technologies) SelectScreen
Assay: SelectScreen Z'LYTE
Format: biochemical
Procedure, shortened: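 Compound tested in SelectScreen activity assays, Z'LYTE for CSF1R, CDK1/cyclin B and MAP2K6 and Adapta for CAMK1. ATP for CAMK1 was listed as 10, and Km app was used for CSF1R. Results are expressed in percent.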

T1 sequence (P29376 17-864): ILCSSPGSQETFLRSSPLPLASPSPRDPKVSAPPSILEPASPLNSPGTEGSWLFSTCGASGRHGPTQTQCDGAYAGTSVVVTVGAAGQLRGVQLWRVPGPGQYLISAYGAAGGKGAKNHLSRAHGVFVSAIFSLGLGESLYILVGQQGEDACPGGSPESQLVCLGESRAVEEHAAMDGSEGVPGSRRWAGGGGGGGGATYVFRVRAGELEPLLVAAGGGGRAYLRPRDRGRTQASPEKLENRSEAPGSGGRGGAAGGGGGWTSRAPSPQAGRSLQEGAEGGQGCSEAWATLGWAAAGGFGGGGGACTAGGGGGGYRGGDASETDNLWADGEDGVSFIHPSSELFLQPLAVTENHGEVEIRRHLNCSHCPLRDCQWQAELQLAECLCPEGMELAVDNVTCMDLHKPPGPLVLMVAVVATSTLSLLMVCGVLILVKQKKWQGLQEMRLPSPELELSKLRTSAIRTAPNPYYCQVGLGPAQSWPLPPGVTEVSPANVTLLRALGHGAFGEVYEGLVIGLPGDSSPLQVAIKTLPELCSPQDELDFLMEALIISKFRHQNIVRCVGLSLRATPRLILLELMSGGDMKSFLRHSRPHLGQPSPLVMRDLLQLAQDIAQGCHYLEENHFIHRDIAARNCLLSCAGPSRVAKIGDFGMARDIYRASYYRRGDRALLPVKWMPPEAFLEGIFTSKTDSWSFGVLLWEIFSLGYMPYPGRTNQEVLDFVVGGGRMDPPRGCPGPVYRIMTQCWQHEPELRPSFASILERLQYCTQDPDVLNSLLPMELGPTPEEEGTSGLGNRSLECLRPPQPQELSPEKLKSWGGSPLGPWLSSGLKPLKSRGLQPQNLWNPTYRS

## CN(C(=O)CN1CCOCC1)c1ccc2sc3c(-c4cccc5c(=O)cc(N6CC7CCC(C6)O7)oc45)cccc3c2c1 [NU5455]
  inhibition at 1 µM: -13.1%
